This note sets out measurements from ChEMBL document CHEMBL5537201, “Discovery of Unique Bis-Substituted Aromatic Amide Derivatives as Novel Highly Potent Antibiotics for Combating Methicillin-Resistant Staphylococcus aureus (MRSA)” (J Med Chem, 2024).

SMILES strings stand for the structures. In brackets after ≈: the same amount, converted by molar mass. Activity calls are given as the source filed them. No cut-off for these calls is given here.

For series [1], the system named is Staphylococcus aureus. The experiment in a line: Antimicrobial activity against Staphylococcus aureus ATCC6538 assessed as reduction in bacterial growth incubated for 24 hrs by two-fold broth dilution method. Format: functional.
Series [2] relates to Staphylococcus aureus. As to the kind of experiment: Antimicrobial activity against Staphylococcus aureus N315 assessed as reduction in bacterial growth incubated for 24 hrs by two-fold broth dilution method. Format: functional.
The test system of the next series is Streptomyces albus. As to the kind of experiment: Antimicrobial activity against Streptomyces albus SHBC D11158 assessed as reduction in bacterial growth incubated for 24 hrs by two-fold broth dilution method. Format: functional.
Series [3] relates to Staphylococcus aureus. The experiment in a line: Antimicrobial activity against methicillin resistant Staphylococcus aureus clinical isolate MRS1 assessed as reduction in bacterial growth incubated for 24 hrs by two-fold broth dilution method. Format: functional.
Series [4] concerns Staphylococcus aureus. The experiment in a line: Antimicrobial activity against methicillin resistant Staphylococcus aureus clinical isolate MRS207 assessed as reduction in bacterial growth incubated for 24 hrs by two-fold broth dilution method. The class given is functional.
In series [5] the test system is Staphylococcus aureus. The experiment in a line: Antimicrobial activity against methicillin resistant Staphylococcus aureus clinical isolate MRS108 assessed as reduction in bacterial growth incubated for 24 hrs by two-fold broth dilution method. Format: functional.
Series [6] concerns Staphylococcus aureus. The experiment in a line: Antimicrobial activity against methicillin resistant Staphylococcus aureus clinical isolate MRS121 assessed as reduction in bacterial growth incubated for 24 hrs by two-fold broth dilution method. The class given is functional.
In series [7] the test system is Staphylococcus aureus. The experiment in a line: Antimicrobial activity against methicillin resistant Staphylococcus aureus clinical isolate MRS97 assessed as reduction in bacterial growth incubated for 24 hrs by two-fold broth dilution method. Format: functional.
The test system of series [8] is Staphylococcus aureus. As to the kind of experiment: Antimicrobial activity against methicillin resistant Staphylococcus aureus clinical isolate MRS153 assessed as reduction in bacterial growth incubated for 24 hrs by two-fold broth dilution method. Format: functional.
Series [9] deals with Staphylococcus aureus. The experiment in a line: Antimicrobial activity against methicillin resistant Staphylococcus aureus clinical isolate MRS273 assessed as reduction in bacterial growth incubated for 24 hrs by two-fold broth dilution method. Format: functional.
The subject of series [10] is Staphylococcus aureus. The experiment in a line: Antimicrobial activity against methicillin resistant Staphylococcus aureus clinical isolate MRS200 assessed as reduction in bacterial growth incubated for 24 hrs by two-fold broth dilution method. The class given is functional.
Series [11] deals with Staphylococcus aureus. The experiment in a line: Antimicrobial activity against methicillin resistant Staphylococcus aureus clinical isolate MRS70 assessed as reduction in bacterial growth incubated for 24 hrs by two-fold broth dilution method. Format: functional.
For series [12], the system named is Staphylococcus aureus. As to the kind of experiment: Antimicrobial activity against methicillin resistant Staphylococcus aureus clinical isolate MRS23 assessed as reduction in bacterial growth incubated for 24 hrs by two-fold broth dilution method. The class given is functional.
For series [13], the system named is Staphylococcus aureus. The experiment in a line: Antimicrobial activity against methicillin resistant Staphylococcus aureus clinical isolate MRS152 assessed as reduction in bacterial growth incubated for 24 hrs by two-fold broth dilution method. The class given is functional.
Series [14] deals with Staphylococcus aureus. The experiment in a line: Antimicrobial activity against methicillin resistant Staphylococcus aureus clinical isolate MRS84 assessed as reduction in bacterial growth incubated for 24 hrs by two-fold broth dilution method. The class given is functional.
The next series concerns Staphylococcus hominis. As to the kind of experiment: Antimicrobial activity against methicillin-resistant Staphylococcus hominis assessed as reduction in bacterial growth incubated for 24 hrs by two-fold broth dilution method. The class given is functional.
Series [15] can be described thus: Cytotoxicity against African green monkey Vero E6 cells assessed as reduction in cell viability measured after 24 hrs by CCK-8 method. The class given is toxicity, cell-based, Chlorocebus sabaeus, Vero C1008.
Series [16] is described as follows: Cytotoxicity against HEK293 cells assessed as reduction in cell viability measured after 24 hrs by CCK-8 method. Format: toxicity, cell-based. The settings on record: human.
A short description of series [17]: Selectivity index, ratio of IC50 for African green monkey Vero E6 cells to MIC for Staphylococcus aureus ATCC6538. Format: toxicity. Particulars: read-out: Selectivity Index.
The next series deals with HeLa. As to the kind of experiment: Cytotoxicity against human HeLa cells assessed as reduction in cell viability measured after 24 hrs by CCK-8 method. Format: functional, cell-based.
Series [18] can be described thus: Selectivity index, ratio of HC50 for rabbit Red blood cell to MIC for Staphylococcus aureus ATCC6538. The class given is toxicity. The settings on record: red blood cells (erythrocytes), read-out: Selectivity Index.
The nature of series [19]: Hemolytic activity in rabbit Red blood cell assessed as hemolysis incubated for 1 hr by two-fold microdilution method. Particulars: red blood cells (erythrocytes). Format: toxicity, cell-based, Oryctolagus cuniculus, Erythrocyte.
Series [20] deals with Staphylococcus aureus. As to the kind of experiment: Induction of drug resistance in Staphylococcus aureus ATCC6538 assessed as change in MIC measured after 10 passages. The class given is functional.
Series [21] can be described thus: Cytotoxicity against human HaCaT cells assessed as reduction in cell viability measured after 24 hrs by CCK-8 method. Format: toxicity, cell-based.
The test system of a further series is A549. The experiment in a line: Cytotoxicity against human A549 cells assessed as reduction in cell viability measured after 24 hrs by CCK-8 method. The class given is functional, cell-based. Particulars: A549, 24 h.

`CCCCCC(=O)N(Cc1cc2ccccc2s1)c1ccc2ccccc2c1O`: the MIC in the series with Staphylococcus aureus [1] and with Staphylococcus aureus [2] was greater than 250 µg/mL each time.

Consider `C=CC(=O)N(Cc1cc2ccccc2s1)c1ccc2ccccc2c1O`, for which the MIC with Staphylococcus aureus [1] and in the series on Staphylococcus aureus [2] was 7.8 µg/mL (≈ 21.7 µM) throughout.

Consider `C=CCCC(=O)N(Cc1cc2ccccc2s1)c1ccc2ccccc2c1O`, for which the minimum inhibitory concentration (MIC) with Staphylococcus aureus [1] and in the series with Staphylococcus aureus [2] was greater than 250 µg/mL throughout.

With `CCCCC(=O)N(Cc1ccc2oc3ccccc3c2c1)c1ccc2ccccc2c1O`, the MIC in the series with Staphylococcus aureus [1] is 62.5 µg/mL (≈ 148 µM); in the series with Staphylococcus aureus [2] it was 125 µg/mL (≈ 295 µM).

Regarding `O=C(CCC(F)(F)F)N(Cc1cc2ccccc2s1)c1ccc(-c2ccccc2)cc1O`, the MIC with Staphylococcus aureus [1] worked out at 2 µg/mL (≈ 4.39 µM); with Staphylococcus aureus [2], 3 µg/mL (≈ 6.59 µM).

Turning to `O=C(CCCCl)N(Cc1cc2ccccc2s1)c1ccc2ccccc2c1O`, the values for the MIC in the series on Staphylococcus aureus [1] and in the series on Staphylococcus aureus [2] were 7.8 µg/mL (≈ 19 µM) and 31.2 µg/mL (≈ 76.2 µM), respectively.

With `COc1ccccc1-c1ccc(O)c(N(Cc2cc3ccccc3s2)C(=O)CCC(F)(F)F)c1`, the MIC in the series on Streptomyces albus was 16 µg/mL (≈ 33 µM); in the series on Staphylococcus aureus [3] it was 16 µg/mL (≈ 33 µM); in the series on Staphylococcus aureus [4], greater than 16 µg/mL; in the series with Staphylococcus aureus [5], 6 µg/mL (≈ 12.4 µM); in the series with Staphylococcus aureus [6], 6 µg/mL (≈ 12.4 µM); with Staphylococcus aureus [7], 3 µg/mL (≈ 6.18 µM). For the same compound, the MIC in the series on Staphylococcus aureus [8] is 16 µg/mL (≈ 33 µM); with Staphylococcus aureus [9], 3 µg/mL (≈ 6.18 µM); in the series with Staphylococcus aureus [10], 16 µg/mL (≈ 33 µM); with Staphylococcus aureus [1] it was 1 µg/mL (≈ 2.06 µM); in the series with Staphylococcus aureus [11], 16 µg/mL (≈ 33 µM); in the series on Staphylococcus aureus [2] it was 1 µg/mL (≈ 2.06 µM). In addition, the MIC with Staphylococcus aureus [12] was 16 µg/mL (≈ 33 µM); in the series on Staphylococcus aureus [13], 6 µg/mL (≈ 12.4 µM); in the series on Staphylococcus aureus [14], 3 µg/mL (≈ 6.18 µM); in the series with Staphylococcus hominis, greater than 32 µg/mL.

In the case of `COc1cccc(-c2ccc(O)c(N(Cc3cc4ccccc4s3)C(=O)CCC(F)(F)F)c2)c1`, the MIC in the series on Streptomyces albus is greater than 32 µg/mL; in the series on Staphylococcus aureus [3], greater than 16 µg/mL; in the series on Staphylococcus aureus [4] it was greater than 16 µg/mL; in the series on Staphylococcus aureus [5] it was 6 µg/mL (≈ 12.4 µM); in the series with Staphylococcus aureus [6] it was greater than 16 µg/mL; in the series with Staphylococcus aureus [7], 6 µg/mL (≈ 12.4 µM). In addition, the MIC in the series on Staphylococcus aureus [8] is greater than 16 µg/mL; with Staphylococcus aureus [9], 16 µg/mL (≈ 33 µM); with Staphylococcus aureus [10] it was greater than 16 µg/mL; with Staphylococcus aureus [1] it was 1 µg/mL (≈ 2.06 µM); in the series on Staphylococcus aureus [11], greater than 16 µg/mL; in the series on Staphylococcus aureus [2] it was 1 µg/mL (≈ 2.06 µM). Besides, the MIC in the series with Staphylococcus aureus [12] is 6 µg/mL (≈ 12.4 µM); in the series on Staphylococcus aureus [13], greater than 16 µg/mL; in the series with Staphylococcus aureus [14], 16 µg/mL (≈ 33 µM); in the series on Staphylococcus hominis, greater than 32 µg/mL.

Consider `O=C(CCC(F)(F)F)N(Cc1cc2ccccc2s1)c1cccc(-c2ccccc2)c1O`, for which the MIC in the series on Staphylococcus aureus [1] and with Staphylococcus aureus [2] was greater than 16 µg/mL each time.

As to `CC(C)(C)c1ccc(-c2ccc(O)c(N(Cc3cc4ccccc4s3)C(=O)CCC(F)(F)F)c2)cc1`, the MIC in the series on Staphylococcus aureus [1] is 2 µg/mL (≈ 3.91 µM); in the series on Staphylococcus aureus [2], 1 µg/mL (≈ 1.95 µM).

With `O=C(CCC(F)(F)F)N(Cc1cc2ccccc2s1)c1cc(-c2ccc(C(F)(F)F)cc2)ccc1O`, the MIC in the series on Streptomyces albus is 8 µg/mL (≈ 15.3 µM); with Staphylococcus aureus [3], 16 µg/mL (≈ 30.6 µM); in the series on Staphylococcus aureus [4], 16 µg/mL (≈ 30.6 µM); in the series with Staphylococcus aureus [5], 16 µg/mL (≈ 30.6 µM); with Staphylococcus aureus [6], 6 µg/mL (≈ 11.5 µM); in the series with Staphylococcus aureus [7], 3 µg/mL (≈ 5.73 µM). Also, the MIC with Staphylococcus aureus [8] came to 6 µg/mL (≈ 11.5 µM); in the series with Staphylococcus aureus [9] it was 6 µg/mL (≈ 11.5 µM); with Staphylococcus aureus [10], 16 µg/mL (≈ 30.6 µM); in the series on Staphylococcus aureus [1], 0.5 µg/mL (≈ 0.955 µM); in the series with Staphylococcus aureus [11] it was 6 µg/mL (≈ 11.5 µM); with Staphylococcus aureus [2] it was 2 µg/mL (≈ 3.82 µM). For the same compound, the minimal inhibitory concentration (MIC) in the series with Staphylococcus aureus [12] was 16 µg/mL (≈ 30.6 µM); with Staphylococcus aureus [13], 6 µg/mL (≈ 11.5 µM); in the series with Staphylococcus aureus [14] it was 6 µg/mL (≈ 11.5 µM); in the series on Staphylococcus hominis, 8 µg/mL (≈ 15.3 µM). The results for the concentration for half-maximal inhibition (IC50) at 24 h in series [15], in series [16] and in series [21] were 5.55 µg/mL (≈ 10.6 µM), 2.79 µg/mL (≈ 5.33 µM) and 3.92 µg/mL (≈ 7.49 µM), respectively. In addition, the selectivity ratio in [17] was 11; in [18], greater than 1000. Also, the concentration for half-maximal inhibition (IC50) with HeLa came out at 5 µg/mL (≈ 9.55 µM); in the series with A549 it was 3.61 µg/mL (≈ 6.9 µM). Moreover, the HC50 at 1 h in [19] turned out to be 5570 µg/mL. The result with Staphylococcus aureus [20] was inactive.

As to `CCCCC(=O)N(Cc1ccc2sccc2c1)c1ccc2ccccc2c1O`, the results for the minimum inhibitory concentration (MIC) with Staphylococcus aureus [1] and in the series on Staphylococcus aureus [2] were 31.2 µg/mL (≈ 80.2 µM) and 62.5 µg/mL (≈ 160 µM), respectively.

For the compound `CCCCC(=O)N(Cc1cc(C(C)(C)C)cc(C(C)(C)C)c1)c1ccc2ccccc2c1O`, the minimal inhibitory concentration (MIC) with Staphylococcus aureus [1] and in the series on Staphylococcus aureus [2] was 62.5 µg/mL (≈ 140 µM) throughout.

As to `O=C(CCC(F)(F)F)N(Cc1cc2ccccc2s1)c1cc(-c2ccc(Br)cc2)ccc1O`, the MIC stood at 2 µg/mL (≈ 3.74 µM) in the series with Staphylococcus aureus [1] and 3 µg/mL (≈ 5.61 µM) in the series with Staphylococcus aureus [2].

In the case of `CCCC(=O)N(Cc1cc2ccccc2s1)c1ccc2ccccc2c1O`, the MIC in the series with Staphylococcus aureus [1] and in the series on Staphylococcus aureus [2] was greater than 250 µg/mL in each case.
